# According to patent US12252524B2, “GIP/GLP1 co-agonist compounds” (Eli Lilly and Company, priority 2018, dated 2025):
# Numbered stars: 1 amine (or outer) side, 2 acyl side, 3 side chain; on linkers, the order of the positions; unused ones are H or OH. Square brackets hold non-standard residues; d marks the D form. Side chains are listed from the residue outwards. Peptide text beside a SMILES is read from it. * marks the point of attachment. C20 diacid = O=C(O)CCCCCCCCCCCCCCCCCCC(=O)*; γGlu = O=C(O)[C@H](CCC(=O)[*:2])N[*:1]; αMeF = C[C@](N)(Cc1ccccc1)C(=O)O; αMeL = CC(C)C[C@](C)(N)C(=O)O; AEEA = NCCOCCOCC(=O)O; Aib = CC(C)(N)C(=O)O
# Key:
# [1] = biological target: T1, gastric inhibitory peptide receptor (GIPR) (Homo sapiens, UniProt P48546); test: cAMP pharmacological functional assay in presence of casein, hGIPR; format: cell-based; details: HEK293 cells expressing hGIPR, 0.1% Casein, geometric mean; read-out: hGIPR cAMP Rel EC50 nM (SEM, n)
# T1 sequence (P48546 22-466): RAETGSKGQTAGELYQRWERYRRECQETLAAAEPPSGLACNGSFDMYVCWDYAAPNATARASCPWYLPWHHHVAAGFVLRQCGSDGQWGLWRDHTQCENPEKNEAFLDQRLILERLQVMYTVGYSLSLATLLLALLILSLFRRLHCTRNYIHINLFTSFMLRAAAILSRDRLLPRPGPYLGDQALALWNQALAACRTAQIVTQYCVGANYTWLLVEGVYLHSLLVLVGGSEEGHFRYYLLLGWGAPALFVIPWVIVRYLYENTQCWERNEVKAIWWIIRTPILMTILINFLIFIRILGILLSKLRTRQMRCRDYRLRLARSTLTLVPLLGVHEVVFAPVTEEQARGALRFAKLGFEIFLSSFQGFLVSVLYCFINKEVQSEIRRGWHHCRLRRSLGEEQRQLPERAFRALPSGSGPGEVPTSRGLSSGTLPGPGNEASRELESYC
# [2] = biological target: T2, human GIP receptor (Homo sapiens, UniProt P48546); test: [125I]-GIP binding (SPA), human GIP receptor; details: read-out: hGIPR Ki, nM (SEM, n)
# T2 construct: expressed in transfected cells; crude membranes
# T2 sequence (P48546 22-466): T1 sequence (P48546 22-466)
# [3] = biological target: T3, human Gcg receptor (Homo sapiens, UniProt P47871); test: [125I]-Glucagon binding (SPA), human Gcg receptor; details: read-out: hGLcgR Ki, nM (SEM, n)
# T3 construct: expressed in transfected cells; crude membranes
# How it was run: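 Crude membranes from cells expressing the receptor, prepared by hypotonic lysis in 50 mM Tris HCl pH 7.5 with protease inhibitors, homogenization and differential centrifugation, were used in a WGA-bead SPA. Binding buffer: 25 mM HEPES pH 7.4, 2.5 mM CaCl2, 1 mM MgCl2, bacitracin, Tween-20.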
# [4] = biological target: human GLP-1R (Homo sapiens, UniProt P43220); test: [125I]-GLP-1 binding (SPA), human GLP-1 receptor; design: expressed in transfected cells; crude membranes; details: read-out: hGLP1R Ki, (nM) (SEM, n)
# How it was run: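 Frozen cell pellets are lysed on ice in hypotonic Tris buffer, pH 7.5, homogenized, and centrifuged to a membrane pellet resuspended at about 1 to 3 mg/mL. Binding is then measured in HEPES-based buffer at pH 7.4, and curves are fitted to give IC50 and Ki.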
# [5] = biological target: human GLP-1 receptor (GLP-1R) (Homo sapiens, UniProt P43220); test: cAMP pharmacological functional assay in presence of casein, hGLP-1R; format: cell-based; details: HEK293 cells expressing hGLP-1R, 0.1% Casein, geometric mean; read-out: hGLP1R cAMP Rel EC50 nM (SEM, n)
# Sequence of human GLP-1 receptor (GLP-1R) (P43220 24-463): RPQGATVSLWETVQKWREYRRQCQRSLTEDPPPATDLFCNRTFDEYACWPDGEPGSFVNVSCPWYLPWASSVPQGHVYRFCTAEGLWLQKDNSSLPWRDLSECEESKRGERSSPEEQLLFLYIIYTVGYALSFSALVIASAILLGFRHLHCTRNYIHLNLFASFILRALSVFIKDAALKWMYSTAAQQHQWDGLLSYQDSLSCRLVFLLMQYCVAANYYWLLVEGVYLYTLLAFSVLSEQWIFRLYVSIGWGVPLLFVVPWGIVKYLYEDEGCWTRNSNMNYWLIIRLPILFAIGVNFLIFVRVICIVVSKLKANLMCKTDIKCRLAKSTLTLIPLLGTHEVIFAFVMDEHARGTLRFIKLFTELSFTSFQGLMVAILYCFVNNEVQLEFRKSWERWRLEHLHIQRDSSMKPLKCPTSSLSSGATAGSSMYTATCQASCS
# Sequence of human GLP-1R (P43220 24-463): as above
# T3 sequence (P47871 26-477): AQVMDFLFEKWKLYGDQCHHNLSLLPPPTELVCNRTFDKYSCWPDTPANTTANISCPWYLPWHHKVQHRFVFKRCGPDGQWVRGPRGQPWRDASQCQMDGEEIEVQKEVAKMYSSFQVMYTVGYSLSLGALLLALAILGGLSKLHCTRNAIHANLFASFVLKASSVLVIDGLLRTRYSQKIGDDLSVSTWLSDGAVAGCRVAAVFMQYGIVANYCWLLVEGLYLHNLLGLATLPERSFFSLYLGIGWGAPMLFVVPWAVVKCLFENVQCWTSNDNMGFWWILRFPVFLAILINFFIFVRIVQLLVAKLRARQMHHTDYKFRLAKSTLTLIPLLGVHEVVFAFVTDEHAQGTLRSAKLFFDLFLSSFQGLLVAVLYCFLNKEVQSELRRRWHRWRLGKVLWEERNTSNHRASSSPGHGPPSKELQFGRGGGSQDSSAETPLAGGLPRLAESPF
SMILES,EC50 [1] [nM],Ki [2] [nM],Ki [3] [nM],Ki [4] [nM],EC50 [5] [nM]
CC[C@H](C)[C@H](NC(=O)[C@H](CC(C)C)NC(=O)[C@H](Cc1ccc(O)cc1)NC(=O)[C@H](CCC(=O)O)NC(=O)[C@@H](NC(=O)[C@H](Cc1ccccc1)NC(=O)[C@H](C)NC(=O)C(C)(C)NC(=O)[C@H](CCC(N)=O)NC(=O)[C@H](C)NC(=O)[C@H](CCCCNC(=O)COCCOCCNC(=O)COCCOCCNC(=O)CC[C@H](NC(=O)CC[C@H](NC(=O)CCCCCCCCCCCCCCCCCCC(=O)O)C(=O)O)C(=O)O)NC(=O)[C@H](CCCCN)NC(=O)[C@H](CC(=O)O)NC(=O)[C@H](CC(C)C)NC(=O)[C@](C)(CC(C)C)NC(=O)[C@@H](NC(=O)[C@H](CO)NC(=O)[C@H](Cc1ccc(O)cc1)NC(=O)[C@H](CC(=O)O)NC(=O)[C@H](CO)NC(=O)[C@@H](NC(=O)[C@](C)(Cc1ccccc1)NC(=O)[C@@H](NC(=O)CNC(=O)[C@H](CCC(=O)O)NC(=O)C(C)(C)NC(=O)[C@@H](N)Cc1ccc(O)cc1)[C@@H](C)O)[C@@H](C)O)[C@@H](C)CC)[C@@H](C)CC)C(=O)N[C@@H](CCC(=O)O)C(=O)NCC(=O)NCC(=O)N1CCC[C@H]1C(=O)N[C@@H](CO)C(=O)N[C@@H](CO)C(=O)NCC(=O)N[C@@H](C)C(=O)N1CCC[C@H]1C(=O)N1CCC[C@H]1C(=O)N1CCC[C@H]1C(=O)N[C@@H](CO)C(N)=O [Example 125],0.0381,0.0624,54.4,3.19,0.0478
CC[C@H](C)[C@H](NC(=O)[C@H](CC(C)C)NC(=O)[C@H](Cc1ccc(O)cc1)NC(=O)[C@H](CCC(=O)O)NC(=O)[C@@H](NC(=O)[C@H](Cc1ccccc1)NC(=O)[C@H](C)NC(=O)C(C)(C)NC(=O)[C@H](CCC(N)=O)NC(=O)[C@H](C)NC(=O)[C@H](CCCCNC(=O)COCCOCCNC(=O)COCCOCCNC(=O)CC[C@H](NC(=O)CCCCCCCCCCCCCCCCCCC(=O)O)C(=O)O)NC(=O)[C@H](CCCCN)NC(=O)[C@H](CC(=O)O)NC(=O)[C@H](CC(C)C)NC(=O)[C@](C)(CC(C)C)NC(=O)[C@@H](NC(=O)[C@H](CO)NC(=O)[C@H](Cc1ccc(O)cc1)NC(=O)[C@H](CC(=O)O)NC(=O)[C@H](CO)NC(=O)[C@@H](NC(=O)[C@](C)(Cc1ccccc1)NC(=O)[C@@H](NC(=O)CNC(=O)[C@H](CCC(=O)O)NC(=O)C(C)(C)NC(=O)[C@@H](N)Cc1ccc(O)cc1)[C@@H](C)O)[C@@H](C)O)[C@@H](C)CC)[C@@H](C)CC)C(=O)N[C@@H](CCC(=O)O)C(=O)N[C@@H](C)C(=O)NCC(=O)N1CCC[C@H]1C(=O)N[C@@H](CO)C(=O)N[C@@H](CO)C(=O)NCC(=O)N[C@@H](C)C(=O)N1CCC[C@H]1C(=O)N1CCC[C@H]1C(=O)N1CCC[C@H]1C(=O)N[C@@H](CO)C(N)=O [Example 126] (H-Y[Aib]EGT[αMeF]TSDYSI[αMeL]LDKK([AEEA-AEEA-γGlu-C20 diacid])AQ[Aib]AFIEYLIEAGPSSGAPPPS-NH2; N-terminus assumed),0.0685,0.0644,101,1.46,0.0715
CC[C@H](C)[C@H](NC(=O)[C@H](CC(C)C)NC(=O)[C@H](Cc1ccc(O)cc1)NC(=O)[C@H](CCC(=O)O)NC(=O)[C@@H](NC(=O)[C@H](Cc1ccccc1)NC(=O)[C@H](C)NC(=O)C(C)(C)NC(=O)[C@H](CCC(N)=O)NC(=O)[C@H](C)NC(=O)[C@H](CCCCNC(=O)COCCOCCNC(=O)COCCOCCNC(=O)CC[C@H](NC(=O)CCCCCCCCCCCCCCCCCCC(=O)O)C(=O)O)NC(=O)[C@H](CCCCN)NC(=O)[C@H](CC(=O)O)NC(=O)[C@H](CC(C)C)NC(=O)[C@H](CC(C)C)NC(=O)[C@@H](NC(=O)[C@H](CO)NC(=O)[C@@H](NC(=O)[C@H](CC(=O)O)NC(=O)[C@H](CO)NC(=O)[C@@H](NC(=O)[C@](C)(Cc1ccccc1)NC(=O)[C@@H](NC(=O)CNC(=O)[C@H](CCC(=O)O)NC(=O)C(C)(C)NC(=O)[C@@H](N)Cc1ccc(O)cc1)[C@@H](C)O)[C@@H](C)O)[C@@H](C)CC)[C@@H](C)CC)[C@@H](C)CC)C(=O)N[C@@H](CCC(=O)O)C(=O)NCC(=O)NCC(=O)N1CCC[C@H]1C(=O)N[C@@H](CO)C(=O)N[C@@H](CO)C(=O)NCC(=O)N[C@@H](C)C(=O)N1CCC[C@H]1C(=O)N1CCC[C@H]1C(=O)N1CCC[C@H]1C(=O)N[C@@H](CO)C(N)=O [Example 127] (H-Y[Aib]EGT[αMeF]TSDISILLDKK([AEEA-AEEA-γGlu-C20 diacid])AQ[Aib]AFIEYLIEGGPSSGAPPPS-NH2; N-terminus assumed),0.158,0.126,43.6,1.86,0.145
CC[C@H](C)[C@H](NC(=O)[C@H](CC(C)C)NC(=O)[C@H](Cc1ccc(O)cc1)NC(=O)[C@H](CCC(=O)O)NC(=O)[C@@H](NC(=O)[C@H](Cc1ccccc1)NC(=O)[C@H](C)NC(=O)C(C)(C)NC(=O)[C@H](CCC(N)=O)NC(=O)[C@H](C)NC(=O)[C@H](CCCCNC(=O)COCCOCCNC(=O)COCCOCCNC(=O)CC[C@H](NC(=O)CCCCCCCCCCCCCCCCCCC(=O)O)C(=O)O)NC(=O)[C@H](CCCCN)NC(=O)[C@H](CC(=O)O)NC(=O)[C@H](CC(C)C)NC(=O)[C@H](CC(C)C)NC(=O)[C@@H](NC(=O)[C@H](CO)NC(=O)[C@H](Cc1c[nH]cn1)NC(=O)[C@H](CC(=O)O)NC(=O)[C@H](CO)NC(=O)[C@@H](NC(=O)[C@](C)(Cc1ccccc1)NC(=O)[C@@H](NC(=O)CNC(=O)[C@H](CCC(=O)O)NC(=O)C(C)(C)NC(=O)[C@@H](N)Cc1ccc(O)cc1)[C@@H](C)O)[C@@H](C)O)[C@@H](C)CC)[C@@H](C)CC)C(=O)N[C@@H](CCC(=O)O)C(=O)NCC(=O)NCC(=O)N1CCC[C@H]1C(=O)N[C@@H](CO)C(=O)N[C@@H](CO)C(=O)NCC(=O)N[C@@H](C)C(=O)N1CCC[C@H]1C(=O)N1CCC[C@H]1C(=O)N1CCC[C@H]1C(=O)N[C@@H](CO)C(N)=O [Example 128] (H-Y[Aib]EGT[αMeF]TSDHSILLDKK([AEEA-AEEA-γGlu-C20 diacid])AQ[Aib]AFIEYLIEGGPSSGAPPPS-NH2),0.0694,0.0625,433,1.88,0.0924
CC[C@H](C)[C@H](NC(=O)[C@H](CC(C)C)NC(=O)[C@H](Cc1ccc(O)cc1)NC(=O)[C@H](CCC(=O)O)NC(=O)[C@@H](NC(=O)[C@H](Cc1ccccc1)NC(=O)[C@H](C)NC(=O)C(C)(C)NC(=O)[C@H](CCC(N)=O)NC(=O)[C@H](C)NC(=O)[C@H](CCCCNC(=O)COCCOCCNC(=O)COCCOCCNC(=O)CC[C@H](NC(=O)CCCCCCCCCCCCCCCCCCC(=O)O)C(=O)O)NC(=O)[C@H](CCCCN)NC(=O)[C@H](CC(=O)O)NC(=O)[C@H](CC(C)C)NC(=O)[C@H](CC(C)C)NC(=O)[C@@H](NC(=O)[C@H](CO)NC(=O)[C@H](CC(C)C)NC(=O)[C@H](CC(=O)O)NC(=O)[C@H](CO)NC(=O)[C@@H](NC(=O)[C@](C)(Cc1ccccc1)NC(=O)[C@@H](NC(=O)CNC(=O)[C@H](CCC(=O)O)NC(=O)C(C)(C)NC(=O)[C@@H](N)Cc1ccc(O)cc1)[C@@H](C)O)[C@@H](C)O)[C@@H](C)CC)[C@@H](C)CC)C(=O)N[C@@H](CCC(=O)O)C(=O)NCC(=O)NCC(=O)N1CCC[C@H]1C(=O)N[C@@H](CO)C(=O)N[C@@H](CO)C(=O)NCC(=O)N[C@@H](C)C(=O)N1CCC[C@H]1C(=O)N1CCC[C@H]1C(=O)N1CCC[C@H]1C(=O)N[C@@H](CO)C(N)=O [Example 129] (H-Y[Aib]EGT[αMeF]TSDLSILLDKK([AEEA-AEEA-γGlu-C20 diacid])AQ[Aib]AFIEYLIEGGPSSGAPPPS-NH2),0.106,0.0278,14.9,1,0.121
